Experimental data reported in ChEMBL document CHEMBL3774317, “Design and synthesis of novel tamoxifen analogues that avoid CYP2D6 metabolism” (Eur J Med Chem, 2016).

Key:
Format in all cases: functional
[1] = Cytotoxicity against human MOLT4 cells assessed as cell growth at 10^-5 M after 48 hrs by SRB assay; details: MOLT-4, 48 h, read-out: Activity
SR [2] = test: Cytotoxicity against human SR cells assessed as cell growth at 10^-8 M after 48 hrs by SRB assay; details: read-out: Activity
A549 [3] = test: Cytotoxicity against human A549 cells assessed as cell growth at 10^-4 M after 48 hrs by SRB assay; details: A549, 48 h, read-out: Activity
[4] = Cytotoxicity against human SF539 cells assessed as cell growth at 10^-6 M after 48 hrs by SRB assay; details: SF-539, 48 h, read-out: Activity
CCRF-CEM [5] = test: Cytotoxicity against human CCRF-CEM cells assessed as cell growth at 10^-5 M after 48 hrs by SRB assay; details: read-out: Activity
[6] = Cytotoxicity against human HCT116 cells assessed as cell growth at 10^-5 M after 48 hrs by SRB assay; details: HCT-116, 48 h, read-out: Activity
ACHN [7] = test: Cytotoxicity against human ACHN cells assessed as cell growth at 10^-4 M after 48 hrs by SRB assay; details: read-out: Activity
MDA-MB-435 = test: Cytotoxicity against human MDA-MB-435 cells assessed as cell growth at 10^-7 M after 48 hrs by SRB assay; details: MDA-MB-435, 48 h, read-out: Activity
[8] = Cytotoxicity against human SNB19 cells assessed as cell growth at 10^-7 M after 48 hrs by SRB assay; details: SNB-19, 48 h, read-out: Activity
[9] = Cytotoxicity against human PC3 cells assessed as cell growth at 10^-7 M after 48 hrs by SRB assay; details: PC-3, 48 h, read-out: Activity
[10] = Cytotoxicity against human DU145 cells assessed as cell growth at 10^-5 M after 48 hrs by SRB assay; details: DU-145, 48 h, read-out: Activity
SR [11] = test: Cytotoxicity against human SR cells assessed as cell growth at 10^-6 M after 48 hrs by SRB assay; details: read-out: Activity
[12] = Cytotoxicity against human SNB75 cells assessed as cell growth at 10^-6 M after 48 hrs by SRB assay; details: SNB-75, 48 h, read-out: Activity
SK-MEL-2 = test: Cytotoxicity against human SK-MEL-2 cells assessed as cell growth at 10^-7 M after 48 hrs by SRB assay; details: SK-MEL-2, 48 h, read-out: Activity
SN12C = test: Cytotoxicity against human SN12C cells assessed as cell growth at 10^-7 M after 48 hrs by SRB assay; details: read-out: Activity
SK-MEL-5 = test: Cytotoxicity against human SK-MEL-5 cells assessed as cell growth at 10^-5 M after 48 hrs by SRB assay; details: SK-MEL-5, 48 h, read-out: Activity
[13] = Cytotoxicity against human COLO205 cells assessed as cell growth at 10^-4 M after 48 hrs by SRB assay; details: COLO 205, 48 h, read-out: Activity
[14] = Cytotoxicity against human IGROV1 cells assessed as cell growth at 10^-8 M after 48 hrs by SRB assay; details: IGROV-1, 48 h, read-out: Activity
[15] = Cytotoxicity against human IGROV1 cells assessed as cell growth at 10^-7 M after 48 hrs by SRB assay; details: IGROV-1, 48 h, read-out: Activity
[16] = Cytotoxicity against human OVCAR8 cells assessed as cell growth at 0.5 uM after 48 hrs by SRB assay; details: OVCAR-8, 48 h, read-out: Activity
[17] = Cytotoxicity against human OVCAR8 cells assessed as cell growth at 5 uM after 48 hrs by SRB assay; details: OVCAR-8, 48 h, read-out: Activity
SR [18] = test: Cytotoxicity against human SR cells assessed as cell growth at 0.5 uM after 48 hrs by SRB assay; details: read-out: Activity
M14 = test: Cytotoxicity against human M14 cells assessed as cell growth at 50 nM after 48 hrs by SRB assay; details: M14, 48 h, read-out: Activity
KM12 = test: Cytotoxicity against human KM12 cells assessed as cell growth at 0.5 uM after 48 hrs by SRB assay; details: KM12, 48 h, read-out: Activity
ACHN [19] = test: Cytotoxicity against human ACHN cells assessed as cell growth at 5 nM after 48 hrs by SRB assay; details: read-out: Activity
NCI-H322M = test: Cytotoxicity against human NCI-H322M cells assessed as cell growth at 5 nM after 48 hrs by SRB assay; details: read-out: Activity
T47D = test: Cytotoxicity against human T47D cells assessed as cell growth at 5 uM after 48 hrs by SRB assay; details: read-out: Activity
MDA-MB-468 = test: Cytotoxicity against human MDA-MB-468 cells assessed as cell growth at 50 nM after 48 hrs by SRB assay; details: MDA-MB-468, 48 h, read-out: Activity
[20] = Cytotoxicity against human MOLT4 cells assessed as cell growth at 5 uM after 48 hrs by SRB assay; details: MOLT-4, 48 h, read-out: Activity
CCRF-CEM [21] = test: Cytotoxicity against human CCRF-CEM cells assessed as cell growth at 5 nM after 48 hrs by SRB assay; details: read-out: Activity
A549 [22] = test: Cytotoxicity against human A549 cells assessed as cell growth at 50 nM after 48 hrs by SRB assay; details: A549, 48 h, read-out: Activity
[23] = Cytotoxicity against human HOP92 cells assessed as cell growth at 5 uM after 48 hrs by SRB assay; details: HOP-92, 48 h, read-out: Activity
A498 = test: Cytotoxicity against human A498 cells assessed as cell growth at 50 uM after 48 hrs by SRB assay; details: A498, 48 h, read-out: Activity
[24] = Cytotoxicity against human MOLT4 cells assessed as cell growth at 0.5 uM after 48 hrs by SRB assay; details: MOLT-4, 48 h, read-out: Activity
[25] = Cytotoxicity against human UO31 cells assessed as cell growth at 5 nM after 48 hrs by SRB assay; details: UO-31, 48 h, read-out: Activity
[26] = Cytotoxicity against human OVCAR3 cells assessed as cell growth at 5 nM after 48 hrs by SRB assay; details: OVCAR-3, 48 h, read-out: Activity
[27] = Cytotoxicity against human SW620 cells assessed as cell growth at 0.5 uM after 48 hrs by SRB assay; details: SW-620, 48 h, read-out: Activity
[28] = Cytotoxicity against human COLO205 cells assessed as cell growth at 50 nM after 48 hrs by SRB assay; details: COLO 205, 48 h, read-out: Activity
NCI-H522 = test: Cytotoxicity against human NCI-H522 cells assessed as cell growth at 5 uM after 48 hrs by SRB assay; details: NCI-H522, 48 h, read-out: Activity
U-251 = test: Cytotoxicity against human U251 cells assessed as cell growth at 50 uM after 48 hrs by SRB assay; details: U-251, 48 h, read-out: Activity
HT-29 = test: Cytotoxicity against human HT-29 cells assessed as cell growth at 0.5 uM after 48 hrs by SRB assay; details: HT-29, 48 h, read-out: Activity
[29] = Cytotoxicity against human OVCAR8 cells assessed as cell growth at 5 nM after 48 hrs by SRB assay; details: OVCAR-8, 48 h, read-out: Activity

C/C(=C(/c1ccc(O)cc1)c1ccc(OCCN2CCCC2)cc1)c1ccccc1
growth at 10 µM [1]: 3%
growth at 0.01 µM (SR [2]): 96%
growth at 100 µM (A549 [3]): -96%
growth at 1 µM [4]: 91%
growth at 10 µM (CCRF-CEM [5]): -1%
growth at 10 µM [6]: 1%
growth at 100 µM (ACHN [7]): -91%
growth at 0.1 µM (MDA-MB-435): 97%
growth at 0.1 µM [8]: 101%
growth at 0.1 µM [9]: 105%
growth at 10 µM [10]: 49%
growth at 1 µM (SR [11]): 80%
growth at 1 µM [12]: 76%
growth at 0.1 µM (SK-MEL-2): 103%
growth at 0.1 µM (SN12C): 104%
growth at 10 µM (SK-MEL-5): -99%
growth at 100 µM [13]: -82%
growth at 0.01 µM [14]: 106%
growth at 0.1 µM [15]: 101%

CCCCCCCCCC(=O)Oc1ccc(/C(=C(/C)c2ccccc2)c2ccc(OCCN3CCCC3)cc2)cc1
growth at 0.5 µM [16]: 91%
growth at 5 µM [17]: 95%
growth at 0.5 µM (SR [18]): 60%
growth at 0.05 µM (M14): 94%
growth at 0.5 µM (KM12): 76%
growth at 0.005 µM (ACHN [19]): 101%
growth at 0.005 µM (NCI-H322M): 94%
growth at 5 µM (T47D): 52%
growth at 0.05 µM (MDA-MB-468): 100%
growth at 5 µM [20]: 82%
growth at 0.005 µM (CCRF-CEM [21]): 95%
growth at 0.05 µM (A549 [22]): 102%
growth at 5 µM [23]: 72%
growth at 50 µM (A498): -84%
growth at 0.5 µM [24]: 63%
growth at 0.005 µM [25]: 95%
growth at 0.005 µM [26]: 108%
growth at 0.5 µM [27]: 88%
growth at 0.05 µM [28]: 96%
growth at 5 µM (NCI-H522): 96%
growth at 50 µM (U-251): -89%
growth at 0.5 µM (HT-29): 12%
growth at 0.005 µM [29]: 102%
